Measurements from ChEMBL document CHEMBL4715829, “Heterodimeric Rifampicin-Tobramycin conjugates break intrinsic resistance of Pseudomonas aeruginosa to doxycycline and chloramphenicol in vitro and in a Galleria mellonella in vivo model” (Eur J Med Chem, 2019).
In brackets after ≈: the same amount, converted by molar mass.

Tests used:
Type in all cases: functional
Escherichia coli [1] = experiment: Antibacterial activity against Escherichia coli ATCC 25922 assessed as reduction in bacterial growth incubated for 18 hrs by broth microdilution assay
Pseudomonas aeruginosa [2] = experiment: Antibacterial activity against Pseudomonas aeruginosa 264-101354 assessed as fractional inhibitory concentration incubated for 18 hrs in presence of doxycycline by broth microdilution assay
Pseudomonas aeruginosa [3] = experiment: Antibacterial activity against Pseudomonas aeruginosa ATCC 27853 assessed as reduction in bacterial growth incubated for 18 hrs by broth microdilution assay
[4] = system: Staphylococcus epidermidis; experiment: Antibacterial activity against methicillin-susceptible Staphylococcus epidermidis CANWARD 81388 assessed as reduction in bacterial growth incubated for 18 hrs by broth microdilution assay
Escherichia coli [5] = experiment: Antibacterial activity against gentamicin-resistant Escherichia coli CAN-ICU 61714 assessed as reduction in bacterial growth incubated for 18 hrs by broth microdilution assay
Escherichia coli [6] = experiment: Antibacterial activity against gentamicin, tobramycin, ciprofloxacin-resistant Escherichia coli ATCC 97615 harboring aac(3')IIa gene assessed as reduction in bacterial growth incubated for 18 hrs by broth microdilution assay
Pseudomonas aeruginosa [7] = experiment: Antibacterial activity against gentamicin, tobramycin-resistant Pseudomonas aeruginosa CANWARD 96846 assessed as reduction in bacterial growth incubated for 18 hrs by broth microdilution assay
[8] = system: Stenotrophomonas maltophilia; experiment: Antibacterial activity against Stenotrophomonas maltophilia CAN-ICU 62584 assessed as reduction in bacterial growth incubated for 18 hrs by broth microdilution assay
Pseudomonas aeruginosa [9] = experiment: Antibacterial activity against wild type Pseudomonas aeruginosa PAO1 assessed as reduction in bacterial growth incubated for 18 hrs by broth microdilution assay
Pseudomonas aeruginosa [10] = experiment: Antibacterial activity against Pseudomonas aeruginosa 100036 assessed as fractional inhibitory concentration incubated for 18 hrs in presence of chloramphenicol by broth microdilution assay
Pseudomonas aeruginosa [11] = experiment: Antibacterial activity against Pseudomonas aeruginosa 100036 assessed as fractional inhibitory concentration incubated for 18 hrs in presence of doxycycline by broth microdilution assay
Pseudomonas aeruginosa [12] = experiment: Antibacterial activity against Pseudomonas aeruginosa 260-97103 assessed as fractional inhibitory concentration index in presence of chloramphenicol incubated for 18 hrs by broth microdilution assay
Pseudomonas aeruginosa [13] = experiment: Antibacterial activity against Pseudomonas aeruginosa 262-101856 assessed as fractional inhibitory concentration incubated for 18 hrs in presence of doxycycline by broth microdilution assay
Pseudomonas aeruginosa [14] = experiment: Antibacterial activity against Pseudomonas aeruginosa 101885 assessed as reduction in bacterial growth incubated for 18 hrs by broth microdilution assay
Pseudomonas aeruginosa [15] = experiment: Antibacterial activity against Pseudomonas aeruginosa 262-101856 assessed as reduction in bacterial growth incubated for 18 hrs by broth microdilution assay
Pseudomonas aeruginosa [16] = experiment: Antibacterial activity against Pseudomonas aeruginosa 264-101354 assessed as reduction in bacterial growth incubated for 18 hrs by broth microdilution assay
Pseudomonas aeruginosa [17] = experiment: Antibacterial activity against Pseudomonas aeruginosa PAO1 assessed as reduction in bacterial growth by measuring aztreonam MIC at <=10 uM in presence of aztreonam incubated for 18 hrs by broth microdilution assay based checkerboard assay (reference value: 4 microg/ml); conditions: dose microM <=10
Pseudomonas aeruginosa [18] = experiment: Antibacterial activity against Pseudomonas aeruginosa PAO1 assessed as reduction in bacterial growth by measuring erythromycin MIC at <=10 uM in presence of erythromycin incubated for 18 hrs by broth microdilution assay based checkerboard assay (reference value: 256 microg/ml); conditions: dose microM <=10
Pseudomonas aeruginosa [19] = experiment: Antibacterial activity against Pseudomonas aeruginosa PAO1 assessed as fractional inhibitory concentration index in presence of Linezolid incubated for 18 hrs by broth microdilution assay based checkerboard assay
Pseudomonas aeruginosa [20] = experiment: Antibacterial activity against Pseudomonas aeruginosa PAO1 assessed as fractional inhibitory concentration index in presence of Aztreonam incubated for 18 hrs by broth microdilution assay based checkerboard assay
Pseudomonas aeruginosa [21] = experiment: Antibacterial activity against Pseudomonas aeruginosa PAO1 assessed as fractional inhibitory concentration index in presence of Ceftazidime incubated for 18 hrs by broth microdilution assay based checkerboard assay
Pseudomonas aeruginosa [22] = experiment: Antibacterial activity against Pseudomonas aeruginosa PAO1 assessed as fractional inhibitory concentration index in presence of Clindamycin incubated for 18 hrs by broth microdilution assay based checkerboard assay
Pseudomonas aeruginosa [23] = experiment: Antibacterial activity against Pseudomonas aeruginosa PAO1 assessed as fractional inhibitory concentration index in presence of Pleuromutilin incubated for 18 hrs by broth microdilution assay based checkerboard assay

| SMILES | MIC (Escherichia coli [1]) [µg/mL] | FIC (Pseudomonas aeruginosa [2]) | MIC (Pseudomonas aeruginosa [3]) [µg/mL] | MIC [4] [µg/mL] | MIC (Escherichia coli [5]) [µg/mL] | MIC (Escherichia coli [6]) [µg/mL] | MIC (Pseudomonas aeruginosa [7]) [µg/mL] | MIC [8] [µg/mL] | MIC (Pseudomonas aeruginosa [9]) [µg/mL] | FIC (Pseudomonas aeruginosa [10]) | FIC (Pseudomonas aeruginosa [11]) | FIC (Pseudomonas aeruginosa [13]) | MIC (Pseudomonas aeruginosa [14]) [µg/mL] | MIC (Pseudomonas aeruginosa [15]) [µg/mL] | MIC (Pseudomonas aeruginosa [16]) [µg/mL] | other results |
| --- | --- | --- | --- | --- | --- | --- | --- | --- | --- | --- | --- | --- | --- | --- | --- | --- |
| NC[C@H]1O[C@H](O[C@H]2[C@H](O)[C@@H](O[C@H]3O[C@H](CO)[C@@H](O)[C@H](N)[C@H]3O)[C@H](N)C[C@@H]2N)[C@H](N)C[C@@H]1O [TOBRAMYCIN] | 0.5 (≈ 1.07 µM) | 0.5 | 1 (≈ 2.14 µM) | ≤ 0.25 | 8 (≈ 17.1 µM) | 128 (≈ 274 µM) | 256 (≈ 548 µM) | > 512 | 1 (≈ 2.14 µM) | 0.5 | 0.5 | <=0.5 | 1 (≈ 2.14 µM) | 1020 (≈ 2190 µM) | 128 (≈ 274 µM) | fractional inhibitory concentration index (FICI) (Pseudomonas aeruginosa [12]): 1 |
| CO[C@H]1/C=C/O[C@@]2(C)Oc3c(C)c(O)c4c(O)c(c(/C=N/N5CCN(Cc6cn(CCCCO[C@@H]7[C@@H](O[C@H]8O[C@H](CO)[C@@H](O)[C@H](N)[C@H]8O)[C@H](N)C[C@H](N)[C@H]7O[C@H]7O[C@H](CN)[C@@H](O)C[C@H]7N)nn6)CC5)c(O)c4c3C2=O)NC(=O)/C(C)=C\C=C\[C@H](C)[C@H](O)[C@@H](C)[C@@H](O)[C@@H](C)[C@H](OC(C)=O)[C@@H]1C.O=C(O)C(F)(F)F.O=C(O)C(F)(F)F.O=C(O)C(F)(F)F.O=C(O)C(F)(F)F.O=C(O)C(F)(F)F | > 32 |  | > 32 | 2 | > 32 | > 32 | > 32 | > 32 | 512 |  |  |  | 256 | > 256 | 256 | MIC (Pseudomonas aeruginosa [17]): 4 µg/mL; MIC (Pseudomonas aeruginosa [18]): 128 µg/mL; fractional inhibitory concentration index (FICI) (Pseudomonas aeruginosa [19]): 1.03; fractional inhibitory concentration index (FICI) (Pseudomonas aeruginosa [20]): 1.03; fractional inhibitory concentration index (FICI) (Pseudomonas aeruginosa [21]): 1.03; fractional inhibitory concentration index (FICI) (Pseudomonas aeruginosa [22]): 0.53; fractional inhibitory concentration index (FICI) (Pseudomonas aeruginosa [23]): 1.03 |
| CO[C@H]1/C=C/O[C@@]2(C)Oc3c(C)c(O)c4c(O)c(c(/C=N/N5CCN(C)CC5)c(O)c4c3C2=O)NC(=O)/C(C)=C\C=C\[C@H](C)[C@H](O)[C@@H](C)[C@@H](O)[C@@H](C)[C@H](OC(C)=O)[C@@H]1C [RIFAMPIN] | 8 (≈ 9.72 µM) | 0.25 | 32 (≈ 38.9 µM) | ≤ 0.25 | 8 (≈ 9.72 µM) | 16 (≈ 19.4 µM) | 32 (≈ 38.9 µM) | 32 (≈ 38.9 µM) | 16 (≈ 19.4 µM) | 0.5 | 0.25 | 0.5 | 32 (≈ 38.9 µM) | 512 (≈ 622 µM) | 16 (≈ 19.4 µM) |  |
